Results on ten molecules are retold here after patent publication US6620828B2, “Thiazole compounds and pharmaceutical compositions for inhibiting protein kinases and methods for their use” (Agouron Pharmaceuticals, Inc., priority 1999, dated 2003).

The target in one data set is T1, FGF-R1 (Homo sapiens, UniProt P11362, C488A/C584S/L457V).
T1 construct: starting from the endogenous methionine residue 456 to glutamate 766; made in house; host or cells: baculovirus vector expression system
Kind of data set: FGF-R spectrophotometric assay. The data set is classed as biochemical. The settings on record: for inhibition at 1 µM: Table 3, % inh @ 1 uM, read-out: FGF-P Ki (nM) (% inh @ 1 uM). The method, then:
FGF-R1 Construct for Assay: The intracellular kinase domain of human FGF-R1 was expressed using the baculovirus vector expression system starting from the endogenous methionine residue 456 to glutamate 766, according to the residue numbering system of Mohammadi et al., Mol. Cell. Biol., 16, 977-989 (1996). In addition, the construct also has the following 3 amino acid substitutions: L457V, C488A, and C584S.
The spectrophotometric assay was carried out as described above for VEGF-R2, except for the following changes in concentration: FGF-R=50 nM, ATP=2 mM, and poly(E4Y1)=15 mM.

A further data set addresses T2, CHK1 (Homo sapiens, UniProt O14757).
T2 sequence (O14757 1-476): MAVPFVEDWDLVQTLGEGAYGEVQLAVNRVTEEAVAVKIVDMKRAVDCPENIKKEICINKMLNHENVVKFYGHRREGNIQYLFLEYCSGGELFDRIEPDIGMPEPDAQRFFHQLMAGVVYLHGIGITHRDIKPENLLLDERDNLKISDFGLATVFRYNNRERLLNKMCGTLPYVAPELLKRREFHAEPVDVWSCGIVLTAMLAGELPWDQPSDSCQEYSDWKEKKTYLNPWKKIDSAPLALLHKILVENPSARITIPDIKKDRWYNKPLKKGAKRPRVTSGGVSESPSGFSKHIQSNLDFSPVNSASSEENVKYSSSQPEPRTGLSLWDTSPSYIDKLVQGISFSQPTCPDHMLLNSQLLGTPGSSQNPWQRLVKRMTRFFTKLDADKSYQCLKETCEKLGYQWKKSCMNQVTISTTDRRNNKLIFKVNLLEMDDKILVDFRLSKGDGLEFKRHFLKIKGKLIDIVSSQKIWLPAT
Kind of data set: CHK1 high-throughput screening. The data set is classed as biochemical. The settings on record: for inhibition at 20 µM: read-out: % inhibition @ 20 μM, Table 4, repeated entries per example; for % inhibition @ 20 μM: Table 4, repeated entries per example.

Data set [1] has as its target T3, phosphorylated VEGF-R2Δ50 (FLVK-P) (Homo sapiens, UniProt P35968, DEL940-989/E990V).
T3 construct: VEGF-R2Δ50 contains residues 806-939 and 990-1171; made in house; host or cells: baculovirus/insect cells
The experiment in a line: VEGF-R2 coupled spectrophotometric (FLVK-P) assay. The data set is classed as biochemical. The settings on record: Table 2; spectrophotometric assay. An outline of the steps: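 Baculovirus-expressed human VEGF-R2Δ50 (residues 806-939/990-1171, E990V) was autophosphorylated with 3 mM ATP, 40 mM MgCl2 for 2 h at 4° C. ADP formation was coupled via PK/LDH to NADH oxidation, read at 340 nm, with 5.1 mM poly(E4Y1), 1 mM ATP, 25 mM MgCl2, Hepes pH 7.5. Ki came from activity across compound concentrations.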

A further data set concerns the target CDK2/Cyclin A complex (Homo sapiens, UniProt P24941). The experiment in a line: CDK2/Cyclin A assay. The conditions noted are these: Table 2. The data set is classed as biochemical. The procedure, abridged: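 Radiometric assay: 150 nM CDK2/cyclin A (insect-cell CDK2, truncated cyclin A) phosphorylates His-tagged Rb fragment (residues 386-928) with 25 μM ATP plus [32P]ATP, pH 7.4 HEPES, 2% DMSO, 30 °C for 20 min. Filter-captured product counted by phosphorimager; apparent Ki from competitive or tight-binding inhibition fits.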

The target of the next data set is T4, CDK4/Cyclin D3 complex (Homo sapiens, UniProt P11802).
T4 construct: made in house; host or cells: insect cells co-infected with baculovirus vectors
Kind of data set: CDK4/Cyclin D assay. The data set is classed as biochemical. The settings on record: Table 2. The procedure, abridged:
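Insect-cell-expressed CDK4/cyclin D3 (50 nM) phosphorylating His-tagged Rb fragment (residues 386-928) with 25 μM [^32P]ATP in HEPES pH 7.4, MgCl2, 2% DMSO; 20 min at 30 °C, EDTA stop. Filter-captured 32P by phosphorimager; apparent Ki from competitive or tight-binding inhibition fits.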

Data set [2] addresses T5, phosphorylated VEGF-R2Δ50 (Homo sapiens, UniProt P35968, DEL940-989/E990V).
T5 construct: VEGF-R2Δ50 contains residues 806-939 and 990-1171; made in house; host or cells: baculovirus/insect cells
The experiment in a line: VEGF-R2 ELISA assay. The data set is classed as biochemical. The settings on record: Table 2; * determined with ELISA assay; read-out: FLVK-P Ki. The procedure, abridged:
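Pre-autophosphorylated human VEGF-R2Δ50 (residues 806-939/990-1171, E990V; baculovirus) at 0.8 nM was run with 2 μM biotin-gastrin(1-17), 20 μM ATP, 26 mM MgCl2, 2 mM MnCl2, pH 7.5 Hepes. Phosphopeptide was captured on streptavidin and detected by anti-pTyr-HRP/ABTS at 405 nm; Ki came from activity at varying compound concentrations.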

Another data set deals with T6, LCK tyrosine kinase (Homo sapiens, UniProt P06239, C224D/P223M).
T6 construct: starting from amino acid residue 223 to the end of the protein at residue 509; made in house; host or cells: insect cells
The experiment in a line: LCK spectrophotometric assay. The data set is classed as biochemical. The settings on record: Table 3, read-out: LCK (% inh @ 1 uM).

The target in data set [3] is T7, unphosphorylated VEGF-R2Δ50 (FLVK) (Homo sapiens, UniProt P35968, DEL940-989/E990V).
T7 construct: VEGF-R2Δ50 contains residues 806-939 and 990-1171; made in house; host or cells: baculovirus/insect cells
The experiment in a line: VEGF-R2 coupled spectrophotometric assay, unphosphorylated enzyme (FLVK). The data set is classed as biochemical. The conditions noted are these: Table 3; some entries 'Slow binder'. An outline of the steps:
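Unphosphorylated VEGF-R2Δ50 (5 to 40 nM) with 20 mM poly(E4Y1), 3 mM ATP, 60 mM MgCl2, 2 mM MnCl2 in 200 mM Hepes pH 7.5. ADP production coupled via PK/LDH to NADH oxidation, read at 340 nm. Ki from activity at varying compound concentrations.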

The subject of data set [4] is human umbilical vein endothelial cells (HUVEC). Kind of data set: HUVEC proliferation assay. The data set is classed as cell-based. The settings on record: Homo sapiens, HUVEC, Table 3. The procedure, abridged:
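Exponentially growing HUVEC were serum-starved 24 h (F12K + 1% FBS), pre-treated 1 h with compound (0.1% DMSO final), then stimulated with 6 ng/ml VEGF. Proliferation was read 72 h later by MTT reduction (A595). IC50 came from seven 0.5-log concentrations in triplicate; screens gave % inhibition relative to VEGF-only and starved wells.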

Several values for one entry are separate records, joined by “and”; a condition that tells them apart may be missing. Equal entries are not always repeated.

T7 sequence (P35968 with tags, fused parts or gaps DEL940-989/E990V limits assumed): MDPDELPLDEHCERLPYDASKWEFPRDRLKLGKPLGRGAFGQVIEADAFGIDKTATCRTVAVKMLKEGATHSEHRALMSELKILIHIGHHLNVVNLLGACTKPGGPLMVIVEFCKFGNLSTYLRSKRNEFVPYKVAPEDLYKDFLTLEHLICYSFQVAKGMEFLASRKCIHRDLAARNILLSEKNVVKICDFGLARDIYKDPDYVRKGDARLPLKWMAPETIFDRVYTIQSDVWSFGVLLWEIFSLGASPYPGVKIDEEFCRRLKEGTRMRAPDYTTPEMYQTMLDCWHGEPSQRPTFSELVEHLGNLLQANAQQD
T5 sequence (P35968 with tags, fused parts or gaps DEL940-989/E990V limits assumed): as above
T4 sequence (P11802 whole entry): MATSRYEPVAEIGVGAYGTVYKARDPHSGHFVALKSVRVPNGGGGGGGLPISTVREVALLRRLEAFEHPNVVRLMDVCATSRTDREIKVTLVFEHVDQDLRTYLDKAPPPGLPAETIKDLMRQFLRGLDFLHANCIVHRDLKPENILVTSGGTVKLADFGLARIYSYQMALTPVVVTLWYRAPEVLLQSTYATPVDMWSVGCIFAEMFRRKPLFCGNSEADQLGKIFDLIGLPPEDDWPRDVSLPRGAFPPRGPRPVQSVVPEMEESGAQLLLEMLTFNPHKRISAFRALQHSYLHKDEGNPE
T4 sequence (P30281 whole entry partner): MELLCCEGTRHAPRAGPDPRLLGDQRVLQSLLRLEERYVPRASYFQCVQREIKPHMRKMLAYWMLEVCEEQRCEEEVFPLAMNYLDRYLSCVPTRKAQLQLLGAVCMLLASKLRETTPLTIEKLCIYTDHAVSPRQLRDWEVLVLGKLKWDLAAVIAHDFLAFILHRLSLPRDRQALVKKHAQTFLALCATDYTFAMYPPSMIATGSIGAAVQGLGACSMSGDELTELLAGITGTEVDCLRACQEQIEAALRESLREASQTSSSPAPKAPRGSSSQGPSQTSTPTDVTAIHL
T1 sequence (P11362 456-766 L457V/C488A/C584S): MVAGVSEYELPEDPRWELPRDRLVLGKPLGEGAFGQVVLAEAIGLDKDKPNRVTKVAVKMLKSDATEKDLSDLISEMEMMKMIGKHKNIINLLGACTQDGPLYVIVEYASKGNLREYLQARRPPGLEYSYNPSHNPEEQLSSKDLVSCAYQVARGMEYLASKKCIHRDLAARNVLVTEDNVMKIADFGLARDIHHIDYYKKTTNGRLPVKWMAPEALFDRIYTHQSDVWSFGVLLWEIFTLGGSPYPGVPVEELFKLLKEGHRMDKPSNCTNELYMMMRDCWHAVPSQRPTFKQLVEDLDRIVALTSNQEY
T6 sequence (P06239 223-509 P223M/C224D): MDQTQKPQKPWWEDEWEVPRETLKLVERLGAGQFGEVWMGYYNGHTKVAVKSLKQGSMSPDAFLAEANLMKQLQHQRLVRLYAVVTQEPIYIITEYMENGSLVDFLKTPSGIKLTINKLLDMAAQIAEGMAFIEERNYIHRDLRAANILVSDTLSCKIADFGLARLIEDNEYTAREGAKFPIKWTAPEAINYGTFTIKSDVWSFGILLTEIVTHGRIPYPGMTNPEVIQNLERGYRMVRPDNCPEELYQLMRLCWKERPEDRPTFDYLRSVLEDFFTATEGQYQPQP
T3 sequence (P35968 with tags, fused parts or gaps DEL940-989/E990V limits assumed): as the sequence (P35968 with tags, fused parts or gaps DEL940-989/E990V limits assumed) above

In the case of `COc1cc(O)cc(-c2csc(-c3sc(Nc4cc(OC)c(OC)c(OC)c4)nc3N)n2)c1` [A(19), 3-[4′-Amino-2′-(3,4,5-trimethoxy-phenylamino)-[2,5′]bithiazolyl-4-yl]-5-methoxyphenol], the melting point fell in the range of 208 to 210 °C. Further, the Ki at FGF-R1 (Table 2) was 390 nM. On CHK1, the inhibition at 20 µM is 78.5%. Moreover, the affinity in data set [1] corresponds to a Ki of 4 nM.
On to `Nc1nc(Nc2ccc(S(N)(=O)=O)cc2)sc1-c1nc(-c2cc(-c3ccc(Cl)cc3Cl)co2)cs1` [A(28), 4-{4′-Amino-4-[4-(2,4-dichloro-phenyl)-furan-2-yl]-[2,5′]bithiazolyl-2′-ylamino}-benzenesulfonamide], for which the melting point was 225 to 230 °C (dec.). The inhibition constant Ki on CDK2/Cyclin A complex was found to be 13000 nM. Further, the “% inhibition @ 20 μM” value at CHK1 is 9.3% and 0.4%. For the same molecule, the inhibition constant (Ki) at CDK4/Cyclin D3 complex stood at 24000 nM. The Ki in data set [2] worked out at 131000 nM.
For `COc1cccc(C(=O)Nc2ccc(C)c(-c3noc(-c4sc(Nc5ccc(N6CCOCC6)nc5)nc4N)n3)c2)c1` [B(36), 3-[3-[(3-methoxybenzoyl)amino]-6-methyl-phenyl]-5-[2-[3-amino-6-(4-morpholinyl)-pyridinyl]-4-amino-5-thiazolyl]-1,2,4-oxadiazole], the inhibition at 1 µM amounted to 23% on FGF-R1 and 72% at LCK tyrosine kinase. This molecule gave a Ki in [3] of 0.56 nM.
`COc1ccc(-c2csc(-c3sc(Nc4ccc(S(N)(=O)=O)cc4)nc3N)n2)cc1` [A(2), 4-[4′-Amino-4-(4-methoxy-phenyl)-[2,5′]bithiazolyl-2′-ylamino]-benzenesulfonamide] registered a melting point of 195 to 198 °C. The Ki on CDK2/Cyclin A complex is 1800 nM. Moreover, the “% inhibition @ 20 μM” value on CHK1 was 2.6% and 7.6%. Moreover, the Ki at CDK4/Cyclin D3 complex amounted to 7300 nM. In addition, the Ki in data set [2] worked out at 2900 nM.
Consider `COc1cccc(C(=O)Nc2ccc(C)c(-c3noc(-c4sc(Nc5ccccc5)nc4N)n3)c2)c1` [B(35)], for which the results for the inhibition at 1 µM on FGF-R1 and on LCK tyrosine kinase were 39% and 34%, respectively. Besides, the Ki in [3] worked out at 0.26 nM.
Consider `Nc1nc(Nc2ccc(S(N)(=O)=O)cc2)sc1-c1nc(-c2ccccc2)cs1` [A(1), 4-(4′-Amino-4-phenyl-[2,5′]bithiazolyl-2′-ylamino)-benzenesulfonamide], for which the melting point was 233 to 235 °C (dec.). On CHK1, the “% inhibition @ 20 μM” value came to 49.8% and the inhibition at 20 µM came out at 36.6%. Moreover, the Ki on CDK4/Cyclin D3 complex was determined as 4600 nM. The Ki in [2] stood at 1400 nM.
Consider `COCC(C)NC(=O)Nc1nc(N)c(-c2nc(-c3cc(NC(=O)c4cccc(OC)c4)c(F)cc3F)cs2)s1` (stereo not shown) [O(14), N-(5-{4′-Amino-2′-[3-(2-methoxy-1-methyl-ethyl)-ureido]-[2,5′]bithiazolyl-4-yl}-2,4-difluoro-phenyl)-3-methoxy-benzamide], for which the IC50 in data set [4] amounted to 16 nM. For the same molecule, the inhibition at 1 µM is 10% on FGF-R1 and 0% on LCK tyrosine kinase.
Take `COc1cccc(C(=O)Nc2cc(-c3noc(-c4sc(NC(=O)NCCCN5CCCC5=O)nc4N)n3)c(F)cc2F)c1` [O(2)]: the inhibition at 1 µM at FGF-R1 came to 28%; at LCK tyrosine kinase, 7%. In [3], this molecule displayed a Ki of 0.33 nM.
In the case of `Nc1nc(Nc2ccc(S(N)(=O)=O)cc2)sc1-c1nc(-c2cccc(O)c2)cs1` [A(16), 4-[4′-Amino-4-(3-hydroxy-phenyl)-[2,5′]bithiazolyl-2′-ylamino]-benzenesulfonamide], the melting point is 205 to 209 °C (dec.). The Ki at CDK2/Cyclin A complex turned out to be 220 nM. For the same molecule, on CHK1, the inhibition at 20 µM is 35.4%. For the same molecule, the Ki at CDK4/Cyclin D3 complex stood at 980 nM. In addition, in data set [2], the Ki is 22 nM.
For `Cc1sc(-c2sc(Nc3ccc(S(N)(=O)=O)cc3)nc2N)nc1-c1ccc(F)cc1` [A(14), 4-[4′-Amino-4-(4-fluoro-phenyl)-5-methyl-[2,5′]bithiazolyl-2′-ylamino]-benzenesulfonamide], the melting point is 145 to 148 °C (dec.). The Ki on CDK2/Cyclin A complex is 3100 nM. The inhibition constant Ki on CDK4/Cyclin D3 complex is 7000 nM. Further, the Ki in [2] is 1900 nM.
